Some test systems named below: CCRF-CEM leukemia; HOP-62 NSCLC; IGROV1 ovarian; KM12 colon; OVCAR-8 ovarian; RPMI-8226 leukemia; U251 CNS; DU-145 prostate; MDA-MB-231 breast; NCI/ADR-RES ovarian.
Common to all, as to assay: NCI anticancer screen, dose series, 48 h

This is an account of results in PubChem BioAssay (NCI).

The structures appear in SMILES notation.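 Method: 48-hour compound exposure of cells in 96-well plates, five concentrations, linear interpolation of endpoints. GI50 marks 50% less growth. The concentration for full growth arrest is given as TGI.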

For `CC1=NN(C(=O)Cc2ccccc2)C(=O)/C1=C\c1ccc(O)cc1`, the TGI in the test on CCRF-CEM leukemia, in the test on HOP-62 NSCLC, in the test on IGROV1 ovarian, in the test with KM12 colon, in the test on OVCAR-8 ovarian and in the test with RPMI-8226 leukemia was > 100 µM each time. Moreover, the TGI in the test with U251 CNS is > 100 µM.
`O=[N+]([O-])c1ccc(C[P+]2(c3ccccc3)CCCCC2)cc1`: the TGI in the test on CCRF-CEM leukemia, with HOP-62 NSCLC, in the test with IGROV1 ovarian, with KM12 colon, with OVCAR-8 ovarian and in the test on RPMI-8226 leukemia was > 100 µM throughout. The TGI in the test with U251 CNS is > 100 µM.
On to `CCOC(=O)/C=C/c1nc(C#N)c(N)o1`, for which the TGI with CCRF-CEM leukemia, with DU-145 prostate, with HOP-62 NSCLC, in the test with IGROV1 ovarian, in the test on KM12 colon and with MDA-MB-231 breast was > 100 µM throughout. In addition, the TGI with OVCAR-8 ovarian, with RPMI-8226 leukemia and in the test on U251 CNS was > 100 µM throughout.
On to `CN(/N=C1\C(=O)Nc2ccccc21)c1ccccc1`, for which the TGI in the test with CCRF-CEM leukemia was > 100 µM; with DU-145 prostate it was > 100 µM; in the test on HOP-62 NSCLC, > 100 µM; in the test on IGROV1 ovarian it was > 100 µM; in the test on KM12 colon, > 100 µM; in the test on MDA-MB-231 breast it was 62.5 µM. For the same molecule, the TGI in the test with OVCAR-8 ovarian, in the test on RPMI-8226 leukemia and in the test on U251 CNS was > 100 µM in each case.
As to `CSCC[C@@H](NC(=O)[C@H](CC(C)C)NC(=O)C(Cc1cnc[nH]1)NC(=O)CNC(=O)[C@@H](NC(=O)[C@H](C)NC(=O)[C@H](Cc1c[nH]c2ccccc12)NC(=O)[C@H](CCC(N)=O)NC(=O)[C@@H](N)CC(N)=O)C(C)C)C(N)=O` (stereo not given in full), the TGI in the test on CCRF-CEM leukemia, in the test with HOP-62 NSCLC, in the test on IGROV1 ovarian, in the test on KM12 colon, in the test with NCI/ADR-RES ovarian and in the test on OVCAR-8 ovarian was > 100 µM in each case. Moreover, the TGI in the test on RPMI-8226 leukemia and in the test with U251 CNS was > 100 µM in each case.
With `NCCN1CCCCCc2ccccc21`, the TGI with CCRF-CEM leukemia, in the test on DU-145 prostate, in the test on HOP-62 NSCLC, with IGROV1 ovarian, with KM12 colon and with NCI/ADR-RES ovarian was > 10 µM throughout. For the same molecule, the TGI in the test on OVCAR-8 ovarian, with RPMI-8226 leukemia and in the test on U251 CNS was > 10 µM each time.
Take `CN1CSC(=S)N(c2cccc(C(F)(F)F)c2)C1`: the TGI was > 100 µM in the test on CCRF-CEM leukemia; > 100 µM with DU-145 prostate; 70 µM in the test on HOP-62 NSCLC; 37.3 µM in the test on IGROV1 ovarian; 50.7 µM in the test on KM12 colon; 73.4 µM in the test with NCI/ADR-RES ovarian. Besides, the TGI is 74.5 µM in the test with OVCAR-8 ovarian, 39.4 µM in the test on RPMI-8226 leukemia and > 100 µM with U251 CNS.
Take `COC(=O)/C=C(\C)CC/C=C(\C)CCC1OC1(C)C` (stereo not given): the TGI with CCRF-CEM leukemia came to 21.3 µM; in the test on HOP-62 NSCLC, 26.7 µM; in the test with IGROV1 ovarian, 26.9 µM; with KM12 colon it was 20.8 µM; in the test with MDA-MB-231 breast it was 23.4 µM; in the test on NCI/ADR-RES ovarian, 28 µM. Also, the TGI in the test on OVCAR-8 ovarian was determined as 25.7 µM; in the test on U251 CNS it was 22.5 µM.
`COc1cc2nc(-c3ccc(Cl)cc3)cc(OCCCN3CCOCC3)c2cc1OC`: the GI50 in the test on CCRF-CEM leukemia is 3.35 µM; in the test on IGROV1 ovarian, 990 nM; in the test with KM12 colon, 3.87 µM; with NCI/ADR-RES ovarian, 1150 nM; in the test on OVCAR-8 ovarian, 2150 nM; in the test on U251 CNS, 1920 nM. Besides, the TGI in the test on CCRF-CEM leukemia, with IGROV1 ovarian, with KM12 colon, in the test on NCI/ADR-RES ovarian, in the test with OVCAR-8 ovarian and in the test with U251 CNS was > 100 µM each time.
As for `COc1ccc(CNc2cnc3ccc(N)cc3n2)cc1`, the TGI in the test on CCRF-CEM leukemia, in the test on HOP-62 NSCLC, in the test on KM12 colon, with OVCAR-8 ovarian and in the test with RPMI-8226 leukemia was > 100 µM each time.
On to `CN(C)c1nc(Oc2nc(N(C)C)nc(N(C)C)n2)nc(N(C)C)n1`, for which the TGI in the test on CCRF-CEM leukemia, in the test on IGROV1 ovarian, in the test on KM12 colon, in the test with OVCAR-8 ovarian, in the test on RPMI-8226 leukemia and in the test on U251 CNS was > 100 µM in each case.
For the molecule `CN(C)CCNC(=O)c1cccc2c1Nc1ccccc1S2`, the TGI was determined as 28.1 µM in the test on CCRF-CEM leukemia; 33.4 µM with HOP-62 NSCLC; 24.1 µM in the test with IGROV1 ovarian; 26.4 µM in the test on KM12 colon; 32.6 µM with NCI/ADR-RES ovarian; 30.2 µM with OVCAR-8 ovarian. Also, the TGI in the test with RPMI-8226 leukemia worked out at 29.9 µM; with U251 CNS, 26.9 µM.
Turning to `CC(C)C(Br)CCC1=CCC(Br)(Br)C1` (stereo not given), the TGI was > 100 µM in the test with CCRF-CEM leukemia; 32.5 µM with DU-145 prostate; 30.8 µM with HOP-62 NSCLC; 10.8 µM in the test on IGROV1 ovarian; 27.5 µM in the test with KM12 colon; 20.7 µM in the test on MDA-MB-231 breast. Moreover, the TGI in the test on NCI/ADR-RES ovarian came out at 62.1 µM; with U251 CNS, 28.8 µM.
For `COc1cc(C)c(CC/C(C)=C/Cc2cc(O)ccc2O)c(C)c1C`, the TGI in the test on CCRF-CEM leukemia, in the test on IGROV1 ovarian, in the test with KM12 colon, in the test with OVCAR-8 ovarian, in the test on RPMI-8226 leukemia and in the test with U251 CNS was > 25 µM throughout.
In the case of `N#CNC(N)=NCc1ccccc1`, the TGI in the test on CCRF-CEM leukemia, in the test on HOP-62 NSCLC, in the test on IGROV1 ovarian, in the test with KM12 colon, in the test on OVCAR-8 ovarian and with RPMI-8226 leukemia was > 100 µM each time. Further, the TGI in the test with U251 CNS was > 100 µM.
In the case of `Cc1c(N2CCOCC2)nc2ccc(Cl)cc2c1-c1ccccc1`, the TGI in the test with CCRF-CEM leukemia, in the test on HOP-62 NSCLC, in the test with IGROV1 ovarian, in the test on KM12 colon, with OVCAR-8 ovarian and in the test on RPMI-8226 leukemia was > 100 µM throughout. In addition, the TGI in the test on U251 CNS is > 100 µM.
